Experimental data reported in ChEMBL document CHEMBL4834412, “2,4,5-Trisubstituted Pyrimidines as Potent HIV-1 NNRTIs: Rational Design, Synthesis, Activity Evaluation, and Crystallographic Studies” (J Med Chem, 2021).

Key:
Type in all cases: functional, organism-based
[1] = test system: Human immunodeficiency virus 1; assay: Antiviral activity against HIV-1 strain IIIB infected in human MT4 cells assessed as protection against virus-induced cytopathicity after 5 days by MTT assay; conditions: Human immunodeficiency virus 1, IIIB, MT4, 120 h
[2] = test system: Human immunodeficiency virus 1; assay: Antiviral activity against NNRTI-resistant HIV-1 RES056 harboring RT K103N/Y181C mutant infected in human MT4 cells assessed as protection against virus-induced cytopathogenicity after 5 days by MTT assay; conditions: Human immunodeficiency virus 1, RES056, MT4, 120 h
[3] = test system: Human immunodeficiency virus 1; assay: Antiviral activity against HIV-1 harboring RT L100I mutant infected in human MT4 cells assessed as protection against virus-induced cytopathogenicity after 5 days by MTT assay; conditions: Human immunodeficiency virus 1, MT4, 120 h
[4] = test system: Human immunodeficiency virus 1; assay: Antiviral activity against HIV-1 harboring RT K103N mutant infected in human MT4 cells assessed as protection against virus-induced cytopathogenicity after 5 days by MTT assay; conditions: Human immunodeficiency virus 1, MT4, 120 h
[5] = test system: Human immunodeficiency virus 1; assay: Antiviral activity against HIV-1 harboring RT Y181C mutant infected in human MT4 cells assessed as protection against virus-induced cytopathogenicity after 5 days by MTT assay; conditions: Human immunodeficiency virus 1, MT4, 120 h
[6] = test system: Human immunodeficiency virus 1; assay: Antiviral activity against HIV-1 harboring RT Y188L mutant infected in human MT4 cells assessed as protection against virus-induced cytopathogenicity after 5 days by MTT assay; conditions: Human immunodeficiency virus 1, MT4, 120 h
[7] = test system: Human immunodeficiency virus 1; assay: Antiviral activity against HIV-1 harboring RT E138K mutant infected in human MT4 cells assessed as protection against virus-induced cytopathogenicity after 5 days by MTT assay; conditions: Human immunodeficiency virus 1, MT4, 120 h
[8] = test system: Human immunodeficiency virus 1; assay: Antiviral activity against HIV-1 harboring RT F227L/V106A mutant infected in human MT4 cells assessed as protection against virus-induced cytopathogenicity after 5 days by MTT assay; conditions: Human immunodeficiency virus 1, MT4, 120 h

Row | Structure (SMILES) | EC50 [1] [nM] | EC50 [2] [nM] | EC50 [3] [nM] | EC50 [4] [nM] | EC50 [5] [nM] | EC50 [6] [nM] | EC50 [7] [nM] | EC50 [8] [nM]
1 | Cc1cc(C#N)cc(C)c1Oc1nc(NC2CCN(Cc3ccc(C(N)=O)cc3)CC2)ncc1-c1ccco1 | 5.78 | 254 | 38.2 | 3.73 | 14.9 | 23.3 | 11.9 | 161
2 | Cc1cc(/C=C/C#N)cc(C)c1Oc1nc(NC2CCN(Cc3ccc(S(C)(=O)=O)cc3)CC2)ncc1-c1ccnc(Cl)c1 | 4.23 | 33.3 |  |  |  |  |  | 
3 | Cc1cc(/C=C/C#N)cc(C)c1Oc1nc(NC2CCN(Cc3ccc(S(C)(=O)=O)cc3)CC2)ncc1-c1ccnc(F)c1 | 4.75 | 25.1 |  |  |  |  |  | 
4 | Cc1cc(C#N)cc(C)c1Oc1nc(NC2CCN(Cc3ccc(S(C)(=O)=O)cc3)CC2)ncc1-c1ccncc1 | 5.93 | 244 | 17.4 | 4.4 | 10.8 | 18.5 | 9.19 | 79.4
5 | Cc1cc(-c2cnc(NC3CCN(Cc4ccc(C(N)=O)cc4)CC3)nc2Oc2c(C)cc(/C=C/C#N)cc2C)ccn1 | 3.53 | 18.1 |  |  |  |  |  | 
6 | Cc1cc(/C=C/C#N)cc(C)c1Oc1nc(NC2CCN(Cc3ccc(S(C)(=O)=O)cc3)CC2)ncc1-c1ccc(N)nc1 | 5.29 | 26.2 |  |  |  |  |  | 
7 | Cc1cc(C#N)cc(C)c1Oc1nc(NC2CCN(Cc3ccc(C(N)=O)cc3)CC2)ncc1-c1ccccc1 | 5.11 | 562 | 151 | 9.15 | 28.7 | 30.5 | 17.1 | 393
8 | Cc1cc(/C=C/C#N)cc(C)c1Oc1nc(NC2CCN(Cc3ccc(S(N)(=O)=O)cc3)CC2)ncc1-c1ccncc1 | 4.6 | 22.9 | 5.87 | 4.91 | 24.2 | 27.1 | 11.1 | 23.7
9 | Cc1cc(C#N)cc(C)c1Oc1nc(NC2CCN(Cc3ccc(S(N)(=O)=O)cc3)CC2)ncc1-c1ccco1 | 4.4 | 218 | 20.9 | 5.33 | 24.8 | 36.5 | 24.5 | 128
10 | Cc1cc(/C=C/C#N)cc(C)c1Oc1nc(NC2CCN(Cc3ccc(C(N)=O)cc3)CC2)ncc1-c1ccnc(Cl)c1 | 4.14 | 81.7 |  |  |  |  |  | 
11 | Cc1cc(C#N)cc(C)c1Oc1nc(NC2CCN(Cc3ccc(S(C)(=O)=O)cc3)CC2)ncc1-c1ccoc1 | 4.75 | 172 | 14.8 | 4.39 | 14.4 | 24.2 | 15.3 | 41.5
12 | COc1cc(-c2cnc(NC3CCN(Cc4ccc(S(N)(=O)=O)cc4)CC3)nc2Oc2c(C)cc(/C=C/C#N)cc2C)ccn1 | 5.75 | 34.3 |  |  |  |  |  | 
13 | Cc1cc(/C=C/C#N)cc(C)c1Oc1nc(NC2CCN(Cc3ccc(S(C)(=O)=O)cc3)CC2)ncc1-c1ccc(F)nc1 | 6.04 | 25.5 |  |  |  |  |  | 
14 | Cc1cc(/C=C/C#N)cc(C)c1Oc1nc(NC2CCN(Cc3ccc(C(N)=O)cc3)CC2)ncc1-c1ccncc1 | 4.19 | 23.3 | 5.62 | 3.84 | 7.14 | 23 | 8.66 | 35.5
15 | Cc1cc(/C=C/C#N)cc(C)c1Oc1nc(NC2CCN(Cc3ccc(S(N)(=O)=O)cc3)CC2)ncc1-c1ccc(F)nc1 | 5.8 | 28.2 | 11.4 | 7.5 | 15.4 | 36.7 | 49.1 | 23.1
16 | Cc1cc(/C=C/C#N)cc(C)c1Oc1nc(NC2CCN(Cc3ccc(S(N)(=O)=O)cc3)CC2)ncc1-c1ccc(N)nc1 | 5.8 | 33.5 |  |  |  |  |  | 
17 | Cc1cc(/C=C/C#N)cc(C)c1Oc1nc(NC2CCN(Cc3ccc(S(C)(=O)=O)cc3)CC2)ncc1-c1ccnc(Br)c1 | 4.52 | 33.2 |  |  |  |  |  | 
18 | Cc1cc(C#N)cc(C)c1Oc1nc(NC2CCN(Cc3ccc(S(N)(=O)=O)cc3)CC2)ncc1-c1ccccc1 | 5.14 | 427 | 53.2 | 7.74 | 26.2 | 33.2 | 24.5 | 219
19 | COc1cc(-c2cnc(NC3CCN(Cc4ccc(S(C)(=O)=O)cc4)CC3)nc2Oc2c(C)cc(/C=C/C#N)cc2C)ccn1 | 3.95 | 30 |  |  |  |  |  | 
20 | Cc1cc(/C=C/C#N)cc(C)c1Oc1nc(NC2CCN(Cc3ccc(S(N)(=O)=O)cc3)CC2)ncc1-c1ccnc(Br)c1 | 4.42 | 26.9 |  |  |  |  |  | 

Row | Structure (SMILES) | EC50 [1] [nM] | EC50 [2] [nM] | EC50 [3] [nM] | EC50 [4] [nM] | EC50 [5] [nM] | EC50 [6] [nM] | EC50 [7] [nM] | EC50 [8] [nM]
21 | Cc1cc(-c2cnc(NC3CCN(Cc4ccc(S(C)(=O)=O)cc4)CC3)nc2Oc2c(C)cc(/C=C/C#N)cc2C)ccn1 | 4.55 | 31.5 |  |  |  |  |  | 
22 | Cc1cc(/C=C/C#N)cc(C)c1Oc1nc(NC2CCN(Cc3ccc(C(N)=O)cc3)CC2)ncc1-c1ccnc(F)c1 | 8.26 | 53.4 |  |  |  |  |  | 
23 | Cc1cc(C#N)cc(C)c1Oc1nc(NC2CCN(Cc3ccc(S(C)(=O)=O)cc3)CC2)ncc1-c1ccccc1 | 4.93 | 590 | 71.7 | 11.7 | 33.7 | 35.5 | 32.1 | 218
24 | Cc1cc(/C=C/C#N)cc(C)c1Oc1nc(NC2CCN(Cc3ccc(C(N)=O)cc3)CC2)ncc1-c1ccc(N)nc1 | 6.56 | 30.2 | 11.3 | 6.66 | 12 | 54.2 | 15.4 | 15.4
25 | Cc1cc(/C=C/C#N)cc(C)c1Oc1nc(NC2CCN(Cc3ccc(S(C)(=O)=O)cc3)CC2)ncc1-c1ccncc1 | 5.74 | 26.3 |  |  |  |  |  | 
26 | Cc1cc(/C=C/C#N)cc(C)c1Oc1nc(NC2CCN(Cc3ccc(S(C)(=O)=O)cc3)CC2)ncc1-c1cccnc1 | 4.57 | 22.4 | 10.7 | 5.42 | 10.3 | 22.7 | 12.2 | 13.2
27 | Cc1cc(/C=C/C#N)cc(C)c1Oc1nc(NC2CCN(Cc3ccc(C(N)=O)cc3)CC2)ncc1-c1cccnc1 | 4.78 | 23.1 | 10.8 | 5.76 | 10.1 | 25.5 | 11.3 | 21.7
28 | COc1cc(-c2cnc(NC3CCN(Cc4ccc(C(N)=O)cc4)CC3)nc2Oc2c(C)cc(/C=C/C#N)cc2C)ccn1 | 7.28 | 40.3 |  |  |  |  |  | 
29 | Cc1cc(C#N)cc(C)c1Oc1nc(NC2CCN(Cc3ccc(S(C)(=O)=O)cc3)CC2)ncc1-c1cccs1 | 4.01 | 134 | 8.93 | 5.71 | 11.6 | 15.4 | 6.27 | 38.4
30 | Cc1cc(-c2cnc(NC3CCN(Cc4ccc(S(N)(=O)=O)cc4)CC3)nc2Oc2c(C)cc(/C=C/C#N)cc2C)ccn1 | 4.16 | 23 |  |  |  |  |  | 
31 | Cc1cc(/C=C/C#N)cc(C)c1Oc1nc(NC2CCN(Cc3ccc(S(N)(=O)=O)cc3)CC2)ncc1-c1ccnc(F)c1 | 6.37 | 38.8 |  |  |  |  |  | 
32 | Cc1cc(C#N)cc(C)c1Oc1nc(NC2CCN(Cc3ccc(S(N)(=O)=O)cc3)CC2)ncc1-c1ccncc1 | 2.59 | 111 | 10.6 | 2.33 | 6.93 | 21.4 | 8.12 | 45.9
33 | Cc1cc(C#N)cc(C)c1Oc1nc(NC2CCN(Cc3ccc(C(N)=O)cc3)CC2)ncc1-c1ccsc1 | 4.22 | 415 | 62.6 | 5.52 | 26.4 | 30 | 22 | 325
34 | Cc1cc(C#N)cc(C)c1Oc1nc(NC2CCN(Cc3ccc(C(N)=O)cc3)CC2)ncc1-c1cccs1 | 3.34 | 115 | 14.7 | 5.15 | 10.2 | 17.9 | 8.85 | 75.4
35 | Cc1cc(/C=C/C#N)cc(C)c1Oc1nc(NC2CCN(Cc3ccc(S(N)(=O)=O)cc3)CC2)ncc1-c1cccnc1 | 5.04 | 25.8 | 7.85 | 6.25 | 9.95 | 25.1 | 11.9 | 12.2
36 | Cc1cc(/C=C/C#N)cc(C)c1Oc1nc(NC2CCN(Cc3ccc(C(N)=O)cc3)CC2)ncc1-c1ccnc(Br)c1 | 7 | 32.2 |  |  |  |  |  | 
37 | Cc1cc(/C=C/C#N)cc(C)c1Oc1nc(NC2CCN(Cc3ccc(S(N)(=O)=O)cc3)CC2)ncc1-c1ccnc(Cl)c1 | 4.3 | 20.9 |  |  |  |  |  | 
38 | Cc1cc(C#N)cc(C)c1Oc1nc(NC2CCN(Cc3ccc(S(N)(=O)=O)cc3)CC2)ncc1-c1ccoc1 | 2.51 | 161 | 13.6 | 3 | 9.35 | 15.3 | 13 | 63.2
39 | Cc1cc(C#N)cc(C)c1Oc1nc(NC2CCN(Cc3ccc(S(C)(=O)=O)cc3)CC2)ncc1-c1ccsc1 | 4.92 | 253 | 20.3 | 4.75 | 11.7 | 27.2 | 10.6 | 67.5
40 | Cc1cc(C#N)cc(C)c1Oc1nc(Nc2ccc(C#N)cc2)nc(N)c1Br [ETRAVIRINE] |  |  |  |  | 13.6 | 13.7 | 7.17 | 
